According to PMC8221158, “Novel pyrrolizines bearing 3,4,5-trimethoxyphenyl moiety: design, synthesis, molecular docking, and biological evaluation as potential multi-target cytotoxic agents” (Journal of Enzyme Inhibition and Medicinal Chemistry, 2021):
Values joined by “and” are separate entries in the source; they are usually repeats but may differ in a detail not shown here. Equal values may be shown once.

Experiments:
porcine tubulin = molecular target: T1, porcine tubulin (Sus scrofa, UniProt P02550+P02554); assay: Tubulin polymerisation fluorescence-based assay; type: biochemical; conditions: 5 μM, 37 °C, 60 min; qualitative
T1 construct: purchased Cytoskeleton Inc., Denver, CO BK011P
Procedure: The effect of compounds 16a,b,d on tubulin polymerisation was measured in vitro using tubulin polymerisation fluorescence-based assay (cytoskeleton, cat. BK011P, https://www.cytoskeleton.com/bk011p). The assay was performed following the previous report[22] and according to the manufacturer’s instructions. Briefly, 2 mg/mL porcine tubulin was dissolved in buffer 1 (80 mM PIPES, 2 mM MgCl2, 0.5 mM EGTA pH 6.9, 10 µM fluorescent reporter, 1 mM GTP, 15% glycerol) to a final concentration of […]. Then tubulin solution was transferred to a pre-warmed 96-well plate that contained the test compounds 16a,b,d (5 μM), paclitaxel (3 μM), CaCl2 (0.5 μM), and control buffer. The polymerisation of tubulin was monitored as fluorescence at 37 °C for 60 min. Relative fluorescence units (RFU) were determined at 360 nm for excitation and at 460 nm for emission using the Varioskan Flash spectral scanning multimode reader (Thermo Fisher Scientific, Roskilde, Denmark) at a reading speed of 1 cycle/min.
In the current study, the new compounds were designed bearing the trimethoxy phenyl moiety aiming to obtain new cytotoxic agents that can interfere with tubulin polymerisation in cancer cells. […] In this assay, light scattering by microtubules which is directly proportional to the concentration of the microtubule polymer was used as a measure of tubulin polymerisation. The study was performed using a fluorescence-based tubulin polymerisation assay kit (Cytoskeleton Inc., Denver, CO; Cat # BK011P) following the manufacturer’s instructions (https://www.cytoskeleton.com/bk011p) and according to the previous report.
Paclitaxel (3 μM) was used as a tubulin polymerisation enhancer (positive control, enhancer), while calcium chloride (CaCl2, 0.5 μM) was used as a positive control (inhibitor) as per the manufacturer’s instructions (https://www.cytoskeleton.com/pdf-storage/datasheets/bk011p.pdf). The vehicle was also used to evaluate the polymerisation when tubulin is incubated in the absence of the test compound. The effect of the selected compounds (5 μM) on tubulin polymerisation was evaluated and compared with those of the positive control. The results are represented in Figure 8.

MCF-7/ADR cells = assay: MTT assay, doxorubicin-resistant cells; type: cell-based; conditions: Homo sapiens, NCI/ADR-RES, 72 h treatment, n = 3, read-out: IC50 (µM ± SD) MCF-7/ADR
Procedure: MCF-7 (human breast adenocarcinoma), A2780 (human ovarian cancer) and HCT116 (human colorectal carcinoma), and MRC-5 (normal foetal lung fibroblast) cell lines were bought from the ATCC and were cultured in flasks which were incubated at 37 °C in an atmosphere of 5% CO2, 95% air, and 100% relative humidity, to maintain continuous logarithmic growth. MCF-7, A2780, and HCT116 were maintained in RPMI-1640 media (100 U/mL penicillin, 100 µg/mL streptomycin, and 10% foetal bovine serum, Gibco, Carlsbad, CA). MRC-5 cells were maintained in EMEM (100 U/mL penicillin, 100 µg/mL streptomycin, and 10% foetal bovine serum, Gibco, Carlsbad, CA). Doxorubicin (5 μg/mL, for three months) added for RPMI-1640 media containing MCF7 cells was used to develop doxorubicin-resistant MCF7/ADR cells. All cancer and normal cell lines were cultured according to our previous report. Cells were used within 10–20 passages and were checked for mycoplasma every 6 months, by measuring the bioluminescence (Myco Alert sample detection kit; Lonza, Basel, Switzerland) using the multiplate reader (Synergy HT, BioTek, Winooski, VT).
The MTT assay was used to measure the cytotoxicity and growth inhibitory activities and cytotoxicity of the new compounds according to our previous report[13]^,[17]. Cells from flasks of 70–80% confluency were separately seeded in 96-well flat-bottom microculture plates (Nalgene-Nunc, Thermo Fisher Scientific, Roskilde, Denmark) at a density of 3 × 10^3 cells (MCF-7, A2780, and MRC-5), 1 × 10^4 cells (HCT116), to a volume of 180 μL/well of culture medium. A Neubauer haemocytometer was used for cell counting. Cells were incubated at 37 °C overnight to allow attachment to the wells. The final concentrations of each compound in wells were: 0–50 μM in 200 μL of media (DMSO 0.1%). Lapatinib (Cayman, Ann Arbor, MI) was used as a positive control at the same final concentrations. […] Cytotoxicity of the new compounds was calculated after treatment of cancer/normal cell lines for 72 h. The absorbance of the reduced MTT was determined using a microplate reader A570 nm. […]

EGFR = EGFR (Homo sapiens, UniProt P00533); assay: Kinase profiling test; type: biochemical; conditions: stated as inhibition, read-out: inhibition% against EGFR
Procedure: The test was performed using the radiolabeled ATP determination method (KINEXUS Bioinformatics Corporation, Vancouver, Canada). The test was performed following the previous reports[13]^,[20].
The three compounds were tested at the same concentration (10 μM) against the same 20 kinases used in the previous report. The test was performed by KINEXUS Bioinformatics Corporation (Vancouver, Canada), following previous reports[13]^,[20].

MCF-7 cells = assay: Cell cycle analysis (flow cytometry); type: cell-based, human; conditions: 0.1 μM, 24 h
Procedure: Cell cycle perturbations of MCF-7 cells treated with compounds 16a,b,d at 0.1 µM concentration for 24 h was determined using FC500 flow cytometer (FC500, Beckman Coulter, Miami, FL). The cell cycle analysis was performed according to our previous report.
Based on the results of the MTT assay (Table 1), compounds 16a,b,d were selected to investigate their effect on cell cycle phases of MCF-7 cells. The cancer cells were treated with the test compounds at 0.1 μM and vehicle (control) for 24 h according to the previous report. Cell cycle analysis was performed using FC500 flow cytometer (FC500, Beckman Coulter, Miami, FL). […] On the other hand, the S phase was the least affected with less than a twofold decrease.

[1] = system: microtubule cytoskeleton of MCF-7 cells; assay: Immunofluorescence staining of microtubules; type: cell-based, human; conditions: 5 μM, 24 h

T1 sequence (P02550 whole entry): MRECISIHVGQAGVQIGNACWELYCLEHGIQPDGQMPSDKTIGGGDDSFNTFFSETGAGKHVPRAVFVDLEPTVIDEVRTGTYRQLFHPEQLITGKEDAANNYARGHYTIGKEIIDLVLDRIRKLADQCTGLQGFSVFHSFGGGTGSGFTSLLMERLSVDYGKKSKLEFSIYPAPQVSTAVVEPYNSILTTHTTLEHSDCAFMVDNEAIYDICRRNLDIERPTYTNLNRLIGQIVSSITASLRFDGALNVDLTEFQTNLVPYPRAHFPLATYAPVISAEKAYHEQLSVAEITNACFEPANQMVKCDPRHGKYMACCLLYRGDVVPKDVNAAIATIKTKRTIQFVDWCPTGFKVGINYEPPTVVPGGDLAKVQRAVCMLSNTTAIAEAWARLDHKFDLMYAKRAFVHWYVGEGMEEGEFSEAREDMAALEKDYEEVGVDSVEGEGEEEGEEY
T1 sequence (P02554 whole entry): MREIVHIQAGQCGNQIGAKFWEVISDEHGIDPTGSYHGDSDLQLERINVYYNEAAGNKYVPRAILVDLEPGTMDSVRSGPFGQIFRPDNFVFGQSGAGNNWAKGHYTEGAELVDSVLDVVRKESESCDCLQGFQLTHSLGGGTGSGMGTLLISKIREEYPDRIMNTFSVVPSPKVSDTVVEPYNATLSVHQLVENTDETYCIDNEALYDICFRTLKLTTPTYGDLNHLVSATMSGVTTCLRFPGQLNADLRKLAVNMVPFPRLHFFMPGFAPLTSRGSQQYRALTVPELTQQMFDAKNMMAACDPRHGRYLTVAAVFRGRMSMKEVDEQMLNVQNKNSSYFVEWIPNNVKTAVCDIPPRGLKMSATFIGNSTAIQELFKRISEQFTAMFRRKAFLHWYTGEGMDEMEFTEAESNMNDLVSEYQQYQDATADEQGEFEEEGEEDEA
Sequence of EGFR (P00533 25-1210): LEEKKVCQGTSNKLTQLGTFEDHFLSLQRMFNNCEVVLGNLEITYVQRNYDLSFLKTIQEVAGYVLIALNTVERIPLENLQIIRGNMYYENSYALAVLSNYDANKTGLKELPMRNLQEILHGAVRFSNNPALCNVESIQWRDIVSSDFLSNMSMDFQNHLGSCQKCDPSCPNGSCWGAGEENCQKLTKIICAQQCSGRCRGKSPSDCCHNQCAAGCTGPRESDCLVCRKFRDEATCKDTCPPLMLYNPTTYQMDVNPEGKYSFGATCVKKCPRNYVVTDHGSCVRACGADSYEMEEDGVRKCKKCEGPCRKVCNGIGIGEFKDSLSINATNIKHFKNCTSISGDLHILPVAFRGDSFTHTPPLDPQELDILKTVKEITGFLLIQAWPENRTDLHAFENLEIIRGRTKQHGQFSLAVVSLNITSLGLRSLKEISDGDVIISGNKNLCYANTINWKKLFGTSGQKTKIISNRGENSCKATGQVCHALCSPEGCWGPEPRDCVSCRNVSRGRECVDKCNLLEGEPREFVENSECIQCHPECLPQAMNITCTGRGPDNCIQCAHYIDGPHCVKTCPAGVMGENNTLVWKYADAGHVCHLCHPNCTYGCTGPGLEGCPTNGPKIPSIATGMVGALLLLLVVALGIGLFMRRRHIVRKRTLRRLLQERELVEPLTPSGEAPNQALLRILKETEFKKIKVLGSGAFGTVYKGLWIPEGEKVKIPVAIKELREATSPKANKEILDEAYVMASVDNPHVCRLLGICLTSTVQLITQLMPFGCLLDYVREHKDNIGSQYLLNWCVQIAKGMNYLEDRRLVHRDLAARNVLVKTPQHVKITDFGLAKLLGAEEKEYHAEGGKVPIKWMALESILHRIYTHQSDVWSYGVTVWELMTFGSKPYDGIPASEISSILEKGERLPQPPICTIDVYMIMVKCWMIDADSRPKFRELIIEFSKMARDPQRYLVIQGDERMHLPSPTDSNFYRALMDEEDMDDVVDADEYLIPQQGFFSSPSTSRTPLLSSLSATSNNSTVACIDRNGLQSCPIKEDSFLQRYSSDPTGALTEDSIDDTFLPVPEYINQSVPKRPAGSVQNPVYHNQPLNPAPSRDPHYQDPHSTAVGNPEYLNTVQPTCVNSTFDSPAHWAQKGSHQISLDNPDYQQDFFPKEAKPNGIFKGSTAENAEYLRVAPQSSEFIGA

SMILES	effect on tubulin polymerisation (porcine tubulin)	IC50 (MCF-7/ADR cells) [µM]	inhibition at 10 µM (EGFR) [%]	Cell cycle stage % G1 (MCF-7 cells) [%]	Cell cycle stage % G2/M (MCF-7 cells)	Cell cycle stage % S (MCF-7 cells) [%]	Cell cycle stage % preG1 (MCF-7 cells)	effect on cellular microtubules [1]
COc1cc(C(=O)Nc2c(C#N)c3n(c2C(=O)Nc2ccccc2)CCC3)cc(OC)c1OC [16a, 7-Cyano-N-phenyl-6-(3,4,5-trimethoxybenzamido)-2,3-dihydro-1H-pyrrolizine-5-carboxamide]	weak	1.57 ± 0.04	30	10.69 ± 1.32	37.38 ± 4.66%	25.93 ± 3.47	26.92 ± 3.07%	–
COc1cc(C(=O)Nc2c(C#N)c3n(c2C(=O)Nc2ccc(C)cc2)CCC3)cc(OC)c1OC [16b, 7-Cyano-N-(p-tolyl)-6-(3,4,5-trimethoxybenzamido)-2,3-dihydro-1H-pyrrolizine-5-carboxamide]	moderate inhibitory activity	6.26 ± 0.71	11	13.19 ± 2.95	35.35 ± 4.19%	28.46 ± 2.79	22.43 ± 2.24%	shrank and partially disorganised microtubules which split partially into fragments
COc1cc(C(=O)Nc2c(C#N)c3n(c2C(=O)Nc2ccc(Cl)cc2)CCC3)cc(OC)c1OC [16d, N-(4-Chlorophenyl)-7-cyano-6-(3,4,5-trimethoxybenzamido) -2,3-dihydro-1H-pyrrolizine-5-carboxamide]	moderate inhibitory activity	0.52 ± 0.066	–	5.46 ± 0.87	45.62% and 45.62 ± 5.25%	24.92 ± 2.22	27.56% and 27.56 ± 3.93%	–
